pIC50: −log10 of the molar value.
target: casein kinase 1 epsilon (CK1 epsilon) (Homo sapiens (Human), UniProt P49674); assay: Test A: inhibitory activity on CK1 epsilon, casein phosphorylation assay on ATP-33P filter plate; assay type: biochemical; settings: IC50 values or IC50 ranges (result of several experiments), ATP 10 μM final
Experimental: The capacity of the compounds of the invention to inhibit the phosphorylation of casein by casein kinase 1 epsilon and/or delta may be evaluated according to the procedures described in document US 2005/0 131 012.
Test A: Inhibitory Activity on CK1 Epsilon Measured by Assay on an ATP-^33P Filter Plate
The effect of the compounds on inhibition of the phosphorylation of casein by the enzyme casein kinase 1 epsilon (CK1 epsilon) is measured, using a casein assay via filtration of ATP-^33P in vitro.
Casein kinase 1 epsilon (0.58 mg/ml) is obtained via fermentation and purification processes performed according to methods that are well known to those skilled in the art, or may also be obtained from Invitrogen Corporation™ (human CK1 epsilon).
The compounds are tested at five different concentrations so as to generate IC50 values, i.e. the concentration at which a compound is capable of inhibiting the enzymatic activity by 50%, or alternatively the percentage of inhibition at a concentration of 10 micromolar.
“U”-bottomed Falcon plates are prepared by placing 5 μL of solutions of the compounds according to the invention at concentrations of 10, 1, 0.1, 0.01 or 0.001 μM in different wells. The solutions of the compounds according to the invention at these various concentrations are prepared by diluting in a test buffer (Tris 50 mM pH 7.5, MgCl2 […], DTT 2 mM and EGTA 1 mM) a stock solution in DMSO at a concentration of 10 mM. Next, 5 μL of dephosphorylated casein are added to a final concentration of 0.2 μg/μL, 20 μL of CK1 epsilon to a final concentration of 3 ng/μL, and 20 μL of ATP-^33P to a final concentration of 0.02 μCi/μL mixed with cold ATP (10 μM final—approximately 2×10^6 CPM per well). The final total test volume per well is equal to 50 μL.
The “U”-bottomed Falcon® test plate mentioned above is vortexed, and then incubated at room temperature for 2 hours. After 2 hours the reaction is stopped by adding an ice-cold solution of 65 μL of cold ATP (2 mM) prepared in test buffer.
100 μL of the reaction mixture are then transferred from the “U”-bottomed Falcon® plate into Millipore® MAPH filter plates, preimpregnated with 25 μL of ice-cold 100% TCA.
The Millipore MAPH filter plates are agitated gently and are left to stand at room temperature for at least 30 minutes to precipitate the proteins.
After 30 minutes, the filter plates are sequentially washed and filtered with 2×150 μL of 20% TCA, 2×150 μL of 10% TCA and 2×150 μL of 5% TCA (6 washes in total per plate/900 μL per well).
The plates are left to dry overnight at room temperature. Next, 40 μL of Microscint-20 Packard® scintillation liquid are added per well and the plates are closed in a leaktight manner. The radiation emitted by each well is then measured for 2 minutes in a TopCount NXT Packard® scintillation counter, in which the values of CPM/well are measured.
The percentage inhibition of the capacity of the enzyme to phosphorylate the substrate (casein) is determined for each concentration of test compound. These inhibition data expressed as percentages are used to calculate the IC50 value for each compound compared with the controls.
The kinetic studies determined the KM value for ATP as being 21 μM in this test system.
Table 2 below gives the IC50 values or the IC50 inhibition ranges (result of several experiments) for the phosphorylation of Casein Kinase 1 Epsilon for a number of compounds according to the invention.

Chain of casein kinase 1 epsilon (CK1 epsilon) (P49674 whole entry): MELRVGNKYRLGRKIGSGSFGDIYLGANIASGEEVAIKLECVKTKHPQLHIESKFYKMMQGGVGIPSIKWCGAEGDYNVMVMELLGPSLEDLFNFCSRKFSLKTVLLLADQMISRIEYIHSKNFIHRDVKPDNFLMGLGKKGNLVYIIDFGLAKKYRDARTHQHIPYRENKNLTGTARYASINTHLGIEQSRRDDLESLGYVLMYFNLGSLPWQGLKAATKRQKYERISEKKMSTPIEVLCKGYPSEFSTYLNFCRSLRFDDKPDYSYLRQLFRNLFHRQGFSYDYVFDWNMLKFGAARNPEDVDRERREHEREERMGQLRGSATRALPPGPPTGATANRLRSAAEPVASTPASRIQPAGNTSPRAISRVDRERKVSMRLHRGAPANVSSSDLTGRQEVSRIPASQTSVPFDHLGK

Row | pIC50 | SMILES
1 | 6.48 | CC(C)(C)NC(=O)N1CCn2c(c(C(N)=O)c(-c3ccc(N4CCOCC4)cc3)c2C2CC2)C1 [Compound 30, N^2-tert-butyl-6-cyclo-propyl-7-[4-(morpholin-4-yl)phenyl]-3,4-dihydropyrrolo[1,2-a]pyrazine-2,8(1H)-dicarboxamide]
2 | 7.62 | CC(C)(C)NC(=O)N1CCn2c(c(C(N)=O)c(-c3ccc(OCC#N)cc3)c2C2CC2)C1 [Compound 43, N^2-tert-butyl-7-[4-(cyanomethoxy)phenyl]-6-cyclo-propyl-3,4-dihydropyrrolo[1,2-a]pyrazine-2,8(1H)-dicarboxamide]
3 | 8.15 to 9.00 | COc1cccc(-c2c(C(N)=O)c3n(c2C2CC2)CCN(C(=O)NC(C)(C)C)C3)c1 [Compound 32, N^2-tert-butyl-6-cyclo-propyl-7-(3-methoxyphenyl)-3,4-dihydropyrrolo[1,2-a]pyrazine-2,8(1H)-dicarboxamide]
4 | 5.96 to 6.87 | CC(C)(C)NC(=O)N1CCn2c(c(C(N)=O)c(-c3ccc(C4CCCCC4)cc3)c2C2CC2)C1 [Compound 14, N^2-tert-butyl-7-(4-cyclo-hexylphenyl)-6-cyclo-propyl-3,4-dihydropyrrolo[1,2-a]pyrazine-2,8(1H)-dicarboxamide]
5 | 8.40 to 8.70 | CC(C)(C)NC(=O)N1CCn2c(c(C(N)=O)c(-c3ccc(-c4ccccc4)cc3)c2C2CC2)C1 [Compound 15, 7-(biphenyl-4-yl)-N^2-tert-butyl-6-cyclo-propyl-3,4-dihydropyrrolo[1,2-a]pyrazine-2,8(1H)-dicarboxamide]
6 | 7.55 to 7.77 | NC(=O)c1c(-c2ccccc2)c(C2CC2)n2c1CN(C(=O)NC1CCCCC1)CC2 [Compound 49, N^2-cyclo-hexyl-6-cyclo-propyl-7-phenyl-3,4-dihydropyrrolo[1,2-a]pyrazine-2,8(1H)-dicarboxamide]
7 | 7.77 to 9.00 | CC(C)(C)CCNC(=O)N1CCn2c(Cl)c(-c3ccccc3)c(C(N)=O)c2C1 [Compound 72, 6-chloro-N^2-(3,3-dimethylbutyl)-7-phenyl-3,4-dihydropyrrolo[1,2-a]pyrazine-2,8(1H)-dicarboxamide]
8 | 7.92 | Cc1ccc(-c2c(C(N)=O)c3n(c2C2CC2)CCN(C(=O)NC(C)(C)C)C3)cc1 [Compound 12, N^2-tert-butyl-6-cyclo-propyl-7-(4-methylphenyl)-3,4-dihydropyrrolo[1,2-a]pyrazine-2,8(1H)-dicarboxamide]
9 | 8.70 to 9.00 | CSc1ccc(-c2c(C(N)=O)c3n(c2C2CC2)CCN(C(=O)NC(C)(C)C)C3)cc1 [Compound 48, N^2-tert-butyl-6-cyclo-propyl-7-[4-(methylsulfanyl)phenyl]-3,4-dihydropyrrolo[1,2-a]pyrazine-2,8(1H)-dicarboxamide]
10 | 6.28 | CN(C)S(=O)(=O)Nc1cccc(-c2c(C(N)=O)c3n(c2C2CC2)CCN(C(=O)NC(C)(C)C)C3)c1 [Compound 26, N^2-tert-butyl-6-cyclo-propyl-7-{3-[(dimethylsulfamoyl)amino]phenyl}-3,4-dihydropyrrolo[1,2-a]pyrazine-2,8(1H)-dicarboxamide]
11 | 7.38 | CC(C)NC(=O)N1CCn2c(c(C(N)=O)c(-c3ccccc3)c2C2CC2)C1 [Compound 7, 6-cyclo-propyl-7-phenyl-N^2-(iso-propyl)-3,4-dihydropyrrolo[1,2-a]pyrazine-2,8(1H)-dicarboxamide]
12 | 8.40 | CN(C)c1ccc(-c2c(C(N)=O)c3n(c2C2CC2)CCN(C(=O)NC(C)(C)C)C3)cc1 [Compound 28, N^2-tert-butyl-6-cyclo-propyl-7-[4-(dimethylamino)phenyl]-3,4-dihydropyrrolo[1,2-a]pyrazine-2,8(1H)-dicarboxamide]

Row | SMILES | pIC50
13 | CCCCOc1ccc(-c2c(C(N)=O)c3n(c2C2CC2)CCN(C(=O)NC(C)(C)C)C3)cc1 [Compound 38, 7-(4-butoxyphenyl)-N^2-tert-butyl-6-cyclo-propyl-3,4-dihydropyrrolo[1,2-a]pyrazine-2,8(1H)-dicarboxamide] | 6.82
